Laboratory results reported in patent US8952024B2, “Herbicidal pyrimidone derivatives” (E I du Pont de Nemours and Company, priority 2009, dated 2015).

Assays:
Assay type in all cases: in vivo
[1] = test system: barnyardgrass (Echinochloa crus-galli); test: Test A pre-/postemergence plant response
Procedure, shortened: (§1)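 Each species was treated preemergence via directed soil spray and postemergence at the one- to two-leaf stage, with compounds formulated in a non-phytotoxic solvent plus surfactant. Visual injury relative to untreated controls was rated after about ten days on a 0–100 scale.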

corn (Zea mays) = test: Test A pre-/postemergence plant response
Procedure, shortened: as §1

[2] = test system: giant foxtail (Setaria faberii); test: Test A pre-/postemergence plant response
Procedure, shortened: as §1

[3] = test system: large crabgrass (Digitaria sanguinalis); test: Test A pre-/postemergence plant response
Procedure, shortened: as §1

[4] = test system: morningglory (Ipomoea spp.); test: Test A pre-/postemergence plant response
Procedure, shortened: as §1

[5] = test system: pigweed (Amaranthus retroflexus); test: Test A pre-/postemergence plant response
Procedure, shortened: as §1

[6] = test system: velvetleaf (Abutilon theophrasti); test: Test A pre-/postemergence plant response
Procedure, shortened: as §1

[7] = test system: wheat (Triticum aestivum); test: Test A pre-/postemergence plant response
Procedure, shortened: as §1

[8] = test system: cocklebur (Xanthium strumarium); test: Test B pre-/postemergence plant response
Procedure, shortened: (§2)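 Visual ratings on a 0–100 scale (100 = complete control) were made versus untreated controls 13–15 days after treatment in a greenhouse. Compounds in surfactant-containing non-phytotoxic solvent were applied preemergence to seeds in loam–sand blend or postemergence to 1- to 4-leaf plants (2–18 cm).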

[9] = test system: giant foxtail (Setaria faberii); test: Test B pre-/postemergence plant response
Procedure, shortened: as §2

[10] = test system: green foxtail (Setaria viridis); test: Test B pre-/postemergence plant response
Procedure, shortened: as §2

[11] = Postemergence, 125 g ai/ha, 0 to 100 scale where 0 is no effect and 100 is complete control
[12] = Postemergence, 500 g ai/ha, 0 to 100 scale, 0 = no effect, 100 = complete control, approx. ten days
[13] = Preemergence, 125 g ai/ha, 0 to 100 scale, 0 = no effect, 100 = complete control
[14] = Preemergence, 500 g ai/ha, visual injury, 0 to 100 scale (0 no effect, 100 complete control), approx. ten days
[15] = 31 g ai/ha, postemergence, scale 0 to 100, 0 is no effect, 100 is complete control
[16] = 62 g ai/ha, postemergence, 0 is no effect, 100 is complete control, 13 to 15 days
[17] = Postemergence, 125 g ai/ha, scale 0 to 100 (0 no effect, 100 complete control)
[18] = Postemergence, 250 g ai/ha, scale 0 to 100 (0 no effect, 100 complete control)

Structure (SMILES): CCCn1c(-c2cccc(OC)c2)ncc(C(=O)C2=C(O)CCCC2=O)c1=O [Compound 100]
- Plant response rating, Barnyardgrass [1, 11]: 80
- Plant response rating, Barnyardgrass [1, 12]: 90
- Plant response rating, Barnyardgrass [1, 13]: 40
- Plant response rating, Barnyardgrass [1, 14]: 90
- Plant response rating, Corn (corn (Zea mays); [11]): 0
- Plant response rating, Corn (corn (Zea mays); [12]): 0
- Plant response rating, Corn (corn (Zea mays); [13]): 0
- Plant response rating, Corn (corn (Zea mays); [14]): 0
- Plant response rating, Foxtail, Giant [2, 11]: 80
- Plant response rating, Foxtail, Giant [2, 12]: 90
- Plant response rating, Foxtail, Giant [2, 13]: 50
- Plant response rating, Foxtail, Giant [2, 14]: 80
- Plant response rating, Crabgrass, Large [3, 11]: 80
- Plant response rating, Crabgrass, Large [3, 12]: 90
- Plant response rating, Crabgrass, Large [3, 13]: 80
- Plant response rating, Crabgrass, Large [3, 14]: 90
- Plant response rating, Morningglory [4, 11]: 90
- Plant response rating, Morningglory [4, 12]: 100
- Plant response rating, Morningglory [4, 13]: 70
- Plant response rating, Morningglory [4, 14]: 80
- Plant response rating, Pigweed [5, 11]: 90
- Plant response rating, Pigweed [5, 12]: 100
- Plant response rating, Pigweed [5, 13]: 80
- Plant response rating, Pigweed [5, 14]: 100
- Plant response rating, Velvetleaf [6, 11]: 100
- Plant response rating, Velvetleaf [6, 12]: 100
- Plant response rating, Velvetleaf [6, 13]: 60
- Plant response rating, Velvetleaf [6, 14]: 80
- Plant response rating, Wheat [7, 11]: 0
- Plant response rating, Wheat [7, 12]: 30
- Plant response rating, Wheat [7, 13]: 0
- Plant response rating, Wheat [7, 14]: 0
- Plant response rating, Cocklebur [8, 15]: 40
- Cocklebur plant response rating (0 to 100 scale) [8, 16]: 85
- Plant response rating, Cocklebur [8, 17]: 95
- Plant response rating, Cocklebur [8, 18]: 98
- Plant response rating, Foxtail, Giant [9, 15]: 70
- Foxtail, Giant plant response rating (0 to 100 scale) [9, 16]: 75
- Plant response rating, Foxtail, Giant [9, 17]: 80
- Plant response rating, Foxtail, Giant [9, 18]: 85
- Plant response rating, Foxtail, Green [10, 15]: 20
- Foxtail, Green plant response rating (0 to 100 scale) [10, 16]: 70
- Plant response rating, Foxtail, Green [10, 17]: 80
- Plant response rating, Foxtail, Green [10, 18]: 85
